How the values were obtained:
[1] = system: taxol-specific (TA12) monoclonal antibody; assay: indirect competitive immunoassay, cross-reactivity with TA12; set-up: species or system mouse; details: > x = highest concentration tested (270 or 300 ng/ml), read-out: IC50 TA12 (concentration of analyte required to inhibit antibody binding to solid phase antigen by 50%)
Source text: (§1) A preferred antibody is TA14 available from Hawaii Biotechnology Group is particularly useful for this purpose. The cross-reactivity of polyclonal anti-taxane (TA11) and taxol- (TA12), baccatin III- (TA13), or "generic taxane"-specific (TA14) monoclonal antibodies as determined by indirect competitive immunoassays is set forth in Table 1. All of these antibodies are available from Hawaii Biotechnology group.
(§2) ^a Crossreactivity is expressed as the concentration of analyte
(§3) required to inhibit antibody binding to solid phase antigen by 50%
(§4) (IC50) in the indicated competitive immunoassay. Values expressed as
(§5) > x represent the highest concentration tested (either 270 or 300 ng/ml).

[2] = system: polyclonal anti-taxane (TA11) antibody; assay: indirect competitive immunoassay, cross-reactivity with TA11; details: > x = highest concentration tested (270 or 300 ng/ml), read-out: IC50 TA11 (concentration of analyte required to inhibit antibody binding to solid phase antigen by 50%)
Source text: as §1, §2, §3, §4, §5

[3] = system: "generic taxane"-specific (TA14) monoclonal antibody; assay: indirect competitive immunoassay, cross-reactivity with TA14; set-up: species or system mouse; details: > x = highest concentration tested (270 or 300 ng/ml), read-out: IC50 TA14 (concentration of analyte required to inhibit antibody binding to solid phase antigen by 50%)
Source text: as §1, §2, §3, §4, §5

[4] = system: baccatin III-specific (TA13) monoclonal antibody; assay: indirect competitive immunoassay, cross-reactivity with TA13; set-up: species or system mouse; details: > x = highest concentration tested (270 or 300 ng/ml), read-out: IC50 TA13 (concentration of analyte required to inhibit antibody binding to solid phase antigen by 50%)
Source text: as §1, §2, §3, §4, §5

[5] = system: "generic taxane"-specific (TA14) monoclonal antibody; details: in words; Kingston et al. J. Nat. Prod. 53:1-12 (1990); cited from earlier work
[6] = system: taxol-specific (TA12) monoclonal antibody; details: in words; cited from earlier work
[7] = system: baccatin III-specific (TA13) monoclonal antibody; details: in words; cited from earlier work

Row | Structure (SMILES) | IC50 [1] | IC50 [2] | cross-reaction with TA14 [5] | other results
1 | CC(=O)O[C@@]12CO[C@@H]1C[C@@H](O)[C@@]1(C)C(=O)[C@H](O)C3=C(C)[C@@H](O)C[C@@](O)([C@@H](OC(=O)c4ccccc4)[C@H]21)C3(C)C [7-epi-10-deacetylbaccatin III] | > 496 nM | 34 nM | – | –
2 | CC(=O)O[C@@]12CO[C@@H]1C[C@@H](O)[C@@]1(C)C(=O)[C@H](O)C3=C(C)[C@@H](OC(=O)[C@H](O)[C@@H](NC(=O)c4ccccc4)c4ccccc4)C[C@@](O)([C@@H](OC(=O)c4ccccc4)[C@H]21)C3(C)C [7-epi-10-deacetyltaxol] | 25 nM | 1.2 nM | – | IC50 [3]: 15 nM; IC50 [4]: > 333 nM
3 | CC(=O)O[C@H]1C(=O)[C@]2(C)[C@H](O)C[C@H]3OC[C@@]3(OC(C)=O)[C@H]2[C@H](OC(=O)c2ccccc2)[C@]2(O)C[C@H](OC(=O)[C@H](O)[C@@H](NC(=O)c3ccccc3)c3ccccc3)C(C)=C1C2(C)C [7-epi-taxol] | 80 nM | 8 nM | – | IC50 [3]: 50 nM; IC50 [4]: > 316 nM
4 | CC(=O)O[C@@]12CO[C@@H]1C[C@H](O[C@@H]1OC[C@@H](O)[C@H](O)[C@H]1O)[C@@]1(C)C(=O)[C@H](O)C3=C(C)[C@@H](OC(=O)[C@H](O)[C@@H](NC(=O)c4ccccc4)c4ccccc4)C[C@@](O)([C@@H](OC(=O)c4ccccc4)[C@H]21)C3(C)C [7-xylosyl-10-deacetyltaxol] | – | 1.8 nM | – | –
5 | CC(=O)O[C@@]12CO[C@@H]1C[C@H](O)[C@@]1(C)C(=O)[C@H](O)C3=C(C)[C@@H](OC(=O)[C@H](O)[C@@H](NC(=O)c4ccccc4)c4ccccc4)C[C@@](O)([C@@H](OC(=O)c4ccccc4)[C@H]21)C3(C)C [10-deacelyltaxol] | – | 0.7 nM | – | –
6 | CC(=O)O[C@@]12CO[C@@H]1C[C@H](O)[C@@]1(C)C(=O)[C@H](O)C3=C(C)[C@@H](O)C[C@@](O)([C@@H](OC(=O)c4ccccc4)[C@H]21)C3(C)C [10-deacetylbaccatin III] | – | – | cross reacts | –
7 | CC(=O)O[C@H]1C(=O)[C@@]2(C)[C@H]([C@H](OC(=O)c3ccccc3)[C@]3(O)C[C@H](OC(=O)[C@H](O)[C@@H](NC(=O)c4ccccc4)c4ccccc4)C(C)=C1C3(C)C)[C@]1(OC(C)=O)CO[C@@H]1C[C@@H]2O [Taxol ® (paclitaxel), paclitaxel] | – | 0.5 nM | cross reacts | reactivity with TA12 [6]: specifically reactive
8 | CC(=O)O[C@@]12CO[C@@H]1C[C@H](O)[C@@]1(C)C(=O)[C@H](O)C3=C(C)[C@@H](OC(=O)[C@H](O)[C@@H](NC(=O)OC(C)(C)C)c4ccccc4)C[C@@](O)([C@@H](OC(=O)c4ccccc4)[C@H]21)C3(C)C [Taxotere ® (docetaxel), docetaxel] | > 318 nM | – | – | IC50 [3]: 10 nM; IC50 [4]: > 318 nM
9 | CC(=O)O[C@H]1C(=O)[C@@]2(C)[C@H]([C@H](OC(=O)c3ccccc3)[C@]3(O)C[C@H](O)C(C)=C1C3(C)C)[C@]1(OC(C)=O)CO[C@@H]1C[C@@H]2O [baccatin III] | – | – | cross reacts | binding to TA13 [7]: binds with equal affinity
10 | CC(=O)O[C@H]1C(=O)[C@]2(C)[C@H](O)C[C@H]3OC[C@@]3(OC(C)=O)[C@H]2[C@H](OC(=O)c2ccccc2)[C@]2(O)C[C@H](O)C(C)=C1C2(C)C [baccatin V] | – | – | – | binding to TA13 [7]: binds with equal affinity
11 | C/C=C(\C)C(=O)N[C@@H](c1ccccc1)[C@@H](O)C(=O)O[C@H]1C[C@@]2(O)[C@@H](OC(=O)c3ccccc3)[C@@H]3[C@]4(OC(C)=O)CO[C@@H]4C[C@H](O)[C@@]3(C)C(=O)[C@H](OC(C)=O)C(=C1C)C2(C)C [cephalomannine] | – | 1 nM | cross reacts | –
